# Legend:
# [1] = Half life in cryopreserved mouse liver microsomes at 1 uM after 120 mins by HPLC-MS/MS analysis; assay type: ADME, microsome
# [2] = Intrinsic clearance in mouse liver […] per million cells at 1 uM after 120 mins by HPLC-MS/MS analysis; assay type: ADME; conditions: 2 h
# [3] = Intrinsic clearance in mouse liver microsomes at 1 uM after 120 mins by HPLC-MS/MS analysis; assay type: ADME, microsome; conditions: read-out: CLH
# [4] = test system: LS180; assay: Antiproliferative activity against human LS180 cells after 72 hrs by sulforhodamine-B assay; assay type: functional, cell-based; conditions: for IC50: LS180, 72 h
# [5] = species on record: Mus musculus; assay: Inhibition of hedgehog signaling pathway in mouse Light2 cells stimulated with 100 nM SAG after 30 hrs by Gli-firefly luciferase reporter gene assay
# [6] = as above
# [7] = target: T1, Coelenterazine h 2-monooxygenase (Renilla reniformis, UniProt P27652); assay: Effect on Renilla reniformis luciferase; assay type: ADME
# T1 sequence (P27652 whole entry): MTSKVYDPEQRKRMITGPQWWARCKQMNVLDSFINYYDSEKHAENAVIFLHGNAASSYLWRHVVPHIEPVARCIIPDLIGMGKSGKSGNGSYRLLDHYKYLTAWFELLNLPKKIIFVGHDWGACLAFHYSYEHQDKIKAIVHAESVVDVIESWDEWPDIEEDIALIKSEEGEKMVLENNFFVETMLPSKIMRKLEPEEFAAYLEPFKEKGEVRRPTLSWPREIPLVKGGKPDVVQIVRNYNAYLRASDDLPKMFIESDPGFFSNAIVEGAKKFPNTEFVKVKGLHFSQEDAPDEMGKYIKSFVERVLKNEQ
# [8] = test system: HT-1080; assay: Antiproliferative activity against human HT1080 cells after 72 hrs by sulforhodamine-B assay; assay type: functional, cell-based; conditions: for IC50: HT-1080, 72 h
# [9] = Inhibition of hedgehog signaling pathway-mediated differentiation of mouse C3H10T1/2 cells assessed as decrease in SAG-induced ALP activity after 6 days by chemiluminescence-based assay; conditions: C3H 10T1/2, 144 h
# [10] = species on record: Homo sapiens; assay: Substrate activity at recombinant human P-gp in membrane fraction assessed as increase in ATPase activity at 10 uM by luminescent P-gp-Glo assay relative to control
# [11] = target: T2, CYP2C19 (Homo sapiens, UniProt P33261); assay: Inhibition of recombinant human CYP2C19 expressed in insect cell microsomes at 10 uM using Luciferin-H EGE as substrate preincubated for 20 mins followed by NADPH addition measured after 30 mins by luminometric method; assay type: ADME; conditions: probe Luciferin-H EGE
# T2 sequence (P33261 whole entry): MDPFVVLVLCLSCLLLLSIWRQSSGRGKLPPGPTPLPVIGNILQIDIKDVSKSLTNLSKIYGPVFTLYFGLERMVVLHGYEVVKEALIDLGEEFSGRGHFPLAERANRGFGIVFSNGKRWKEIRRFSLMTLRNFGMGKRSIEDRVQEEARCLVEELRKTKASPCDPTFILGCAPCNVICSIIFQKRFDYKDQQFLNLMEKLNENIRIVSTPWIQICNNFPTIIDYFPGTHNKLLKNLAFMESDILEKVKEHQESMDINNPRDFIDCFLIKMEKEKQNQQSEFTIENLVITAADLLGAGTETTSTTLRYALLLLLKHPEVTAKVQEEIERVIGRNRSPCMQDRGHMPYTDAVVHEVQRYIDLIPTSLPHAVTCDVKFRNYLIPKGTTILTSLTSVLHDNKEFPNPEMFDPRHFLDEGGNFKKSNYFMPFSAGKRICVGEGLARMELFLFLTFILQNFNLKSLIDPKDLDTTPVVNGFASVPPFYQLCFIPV
# [12] = in vitro; conditions: human, Caco-2
# Description: Apparent permeability of the compound from apical to basolateral side in human Caco2 cells after 120 mins by LC-MS/MS analysis
# [13] = in vitro; conditions: human, Caco-2; remark: listed apart in the source
# Description: Apparent permeability of the compound from apical to basolateral side in human Caco2 cells assessed as drug recovery after 120 mins by LC-MS/MS analysis
# [14] = target: T3, CYP1A2 (Homo sapiens, UniProt P05177); assay: Inhibition of recombinant human CYP1A2 expressed in insect cell microsomes at 1 uM using Luciferin-ME as substrate preincubated for 10 mins followed by NADPH addition measured after 30 mins by luminometric method; assay type: ADME; conditions: probe Luciferin-ME
# T3 sequence (P05177 whole entry): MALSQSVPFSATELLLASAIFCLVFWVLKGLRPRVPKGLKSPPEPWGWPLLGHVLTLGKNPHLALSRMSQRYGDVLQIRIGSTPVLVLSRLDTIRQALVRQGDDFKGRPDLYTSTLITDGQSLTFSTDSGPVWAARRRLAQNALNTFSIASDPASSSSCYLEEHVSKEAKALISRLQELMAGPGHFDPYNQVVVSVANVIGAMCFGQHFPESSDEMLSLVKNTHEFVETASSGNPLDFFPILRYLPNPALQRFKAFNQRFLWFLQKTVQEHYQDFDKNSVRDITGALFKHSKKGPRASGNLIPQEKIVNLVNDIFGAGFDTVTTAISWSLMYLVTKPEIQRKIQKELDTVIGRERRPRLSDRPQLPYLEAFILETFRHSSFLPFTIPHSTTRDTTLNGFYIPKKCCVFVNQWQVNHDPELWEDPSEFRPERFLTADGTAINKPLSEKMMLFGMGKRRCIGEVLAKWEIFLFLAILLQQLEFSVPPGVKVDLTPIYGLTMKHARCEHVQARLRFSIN
# [15] = in vitro; conditions: human, Caco-2; remark: listed apart in the source
# Description: Apparent permeability of the compound from basolateral to apical side in human Caco2 cells assessed as drug recovery after 120 mins by LC-MS/MS analysis
# [16] = Drug recovery in mouse plasma at 37 degC after 120 mins by HPLC-MS/MS analysis; assay type: ADME, cell-free; conditions: read-out: Drug recovery
# [17] = target: T3, CYP1A2; assay: Inhibition of recombinant human CYP1A2 expressed in insect cell microsomes at 10 uM using Luciferin-ME as substrate preincubated for 10 mins followed by NADPH addition measured after 30 mins by luminometric method; assay type: ADME; conditions: probe Luciferin-ME
# [18] = target: T4, CYP2C9 (Homo sapiens, UniProt P11712); assay: Inhibition of recombinant human CYP2C9 expressed in insect cell microsomes at 5 uM using Luciferin-H as substrate preincubated for 30 mins followed by NADPH addition measured after 30 mins by luminometric method; assay type: ADME; conditions: probe Luciferin-H
# T4 sequence (P11712 whole entry): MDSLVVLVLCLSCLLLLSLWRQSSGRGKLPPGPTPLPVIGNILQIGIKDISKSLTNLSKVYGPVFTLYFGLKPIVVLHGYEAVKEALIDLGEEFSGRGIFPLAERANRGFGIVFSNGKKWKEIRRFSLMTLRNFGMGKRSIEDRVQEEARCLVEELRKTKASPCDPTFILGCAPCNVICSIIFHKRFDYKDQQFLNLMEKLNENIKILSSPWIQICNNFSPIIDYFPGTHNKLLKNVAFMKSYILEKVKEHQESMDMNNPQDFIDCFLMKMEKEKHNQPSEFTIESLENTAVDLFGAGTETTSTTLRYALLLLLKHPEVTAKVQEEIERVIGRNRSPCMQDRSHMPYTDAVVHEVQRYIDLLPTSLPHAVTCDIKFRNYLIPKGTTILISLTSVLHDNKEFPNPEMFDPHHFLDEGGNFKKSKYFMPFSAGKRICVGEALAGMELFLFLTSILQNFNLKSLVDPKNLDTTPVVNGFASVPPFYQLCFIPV
# [19] = target: T5, CYP2D6 (Homo sapiens, UniProt P10635); assay: Inhibition of recombinant human CYP2D6 expressed in insect cell microsomes at 10 uM using Luciferin-ME EGE as substrate preincubated for 30 mins followed by NADPH addition measured after 45 mins by luminometric method; assay type: ADME; conditions: probe Luciferin-ME EGE
# T5 sequence (P10635 whole entry): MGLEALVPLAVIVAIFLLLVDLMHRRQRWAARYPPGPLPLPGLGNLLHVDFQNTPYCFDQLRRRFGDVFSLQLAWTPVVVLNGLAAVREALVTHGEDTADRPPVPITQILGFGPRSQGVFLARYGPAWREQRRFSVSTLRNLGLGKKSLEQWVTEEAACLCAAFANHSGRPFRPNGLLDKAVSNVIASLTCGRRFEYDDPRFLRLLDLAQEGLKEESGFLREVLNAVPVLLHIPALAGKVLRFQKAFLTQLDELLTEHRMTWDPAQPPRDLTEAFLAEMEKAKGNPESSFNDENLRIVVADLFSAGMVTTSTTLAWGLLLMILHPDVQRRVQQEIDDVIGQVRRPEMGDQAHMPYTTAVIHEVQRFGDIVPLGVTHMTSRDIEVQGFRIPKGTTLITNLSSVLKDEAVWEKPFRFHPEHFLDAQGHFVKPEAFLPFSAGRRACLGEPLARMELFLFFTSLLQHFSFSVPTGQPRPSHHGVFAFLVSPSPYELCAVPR
# [20] = target: T4, CYP2C9; assay: Inhibition of recombinant human CYP2C9 expressed in insect cell microsomes at 10 uM using Luciferin-H as substrate preincubated for 30 mins followed by NADPH addition measured after 30 mins by luminometric method; assay type: ADME; conditions: probe Luciferin-H
# [21] = target: T4, CYP2C9; assay: Inhibition of recombinant human CYP2C9 expressed in insect cell microsomes at 1 uM using Luciferin-H as substrate preincubated for 30 mins followed by NADPH addition measured after 30 mins by luminometric method; assay type: ADME; conditions: probe Luciferin-H
# [22] = target: T2, CYP2C19; assay: Inhibition of recombinant human CYP2C19 expressed in insect cell microsomes at 5 uM using Luciferin-H EGE as substrate preincubated for 20 mins followed by NADPH addition measured after 30 mins by luminometric method; assay type: ADME; conditions: probe Luciferin-H EGE
# [23] = target: T6, CYP3A4 (Homo sapiens, UniProt P08684); assay: Inhibition of recombinant human CYP3A4 expressed in insect cell microsomes at 5 uM using Luciferin-IPA as substrate preincubated for 10 mins followed by NADPH addition measured after 10 mins by luminometric method; assay type: ADME; conditions: probe Luciferin-IPA
# T6 sequence (P08684 whole entry): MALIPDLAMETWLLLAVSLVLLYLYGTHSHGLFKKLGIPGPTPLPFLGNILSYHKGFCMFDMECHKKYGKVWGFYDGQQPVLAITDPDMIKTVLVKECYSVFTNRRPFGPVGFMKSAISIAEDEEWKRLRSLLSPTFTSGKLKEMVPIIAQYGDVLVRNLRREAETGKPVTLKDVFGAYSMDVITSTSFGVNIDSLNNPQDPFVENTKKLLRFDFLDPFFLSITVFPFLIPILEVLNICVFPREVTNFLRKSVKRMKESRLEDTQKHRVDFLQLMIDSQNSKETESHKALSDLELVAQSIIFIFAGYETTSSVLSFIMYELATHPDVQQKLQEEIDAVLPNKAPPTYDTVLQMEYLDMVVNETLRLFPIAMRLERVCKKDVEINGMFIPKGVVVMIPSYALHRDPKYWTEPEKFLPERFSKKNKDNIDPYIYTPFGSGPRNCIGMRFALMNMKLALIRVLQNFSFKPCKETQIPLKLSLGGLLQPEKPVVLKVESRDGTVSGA
# [24] = target: T6, CYP3A4; assay: Inhibition of recombinant human CYP3A4 expressed in insect cell microsomes at 10 uM using Luciferin-IPA as substrate preincubated for 10 mins followed by NADPH addition measured after 10 mins by luminometric method; assay type: ADME; conditions: probe Luciferin-IPA
# [25] = target: T2, CYP2C19; assay: Inhibition of recombinant human CYP2C19 expressed in insect cell microsomes at 1 uM using Luciferin-H EGE as substrate preincubated for 20 mins followed by NADPH addition measured after 30 mins by luminometric method; assay type: ADME; conditions: probe Luciferin-H EGE
# [26] = target: T5, CYP2D6; assay: Inhibition of recombinant human CYP2D6 expressed in insect cell microsomes at 5 uM using Luciferin-ME EGE as substrate preincubated for 30 mins followed by NADPH addition measured after 45 mins by luminometric method; assay type: ADME; conditions: probe Luciferin-ME EGE
# [27] = target: T5, CYP2D6; assay: Inhibition of recombinant human CYP2D6 expressed in insect cell microsomes at 1 uM using Luciferin-ME EGE as substrate preincubated for 30 mins followed by NADPH addition measured after 45 mins by luminometric method; assay type: ADME; conditions: probe Luciferin-ME EGE
# [28] = target: T3, CYP1A2; assay: Inhibition of recombinant human CYP1A2 expressed in insect cell microsomes at 5 uM using Luciferin-ME as substrate preincubated for 10 mins followed by NADPH addition measured after 30 mins by luminometric method; assay type: ADME; conditions: probe Luciferin-ME
# [29] = target: T6, CYP3A4; assay: Inhibition of recombinant human CYP3A4 expressed in insect cell microsomes at 1 uM using Luciferin-IPA as substrate preincubated for 10 mins followed by NADPH addition measured after 10 mins by luminometric method; assay type: ADME; conditions: probe Luciferin-IPA
# [30] = Stability of the compound in mouse deproteinized plasma at 37 degC after 120 mins by HPLC-MS/MS analysis; assay type: ADME, cell-free; conditions: 2 h
compound,measurement,setting,value
CCOc1ccc2ccc(=O)oc2c1 [ETHOXYCOUMARIN],half-life at 1 µM,[1],4.84 min
same,CLH,[2],477 µL/min
same,CLint scaled at 1 µM,[3],1260 mL/min/kg
CS(=O)(=O)c1ccc(C(=O)Nc2ccc(Cl)c(-c3ccccn3)c2)c(Cl)c1 [VISMODEGIB],Activity,[4],Dose-dependent effect
same,IC50,[4],45 µM
same,inhibition,[5],Dose-dependent effect
same,IC50,[6],0.05 µM
same,Activity,[7],Not Active
same,Activity,[8],Dose-dependent effect
same,IC50,[8],> 100 µM
same,IC50,[9],0.05 µM
COc1ccc(CCN(C)CCCC(C#N)(c2ccc(OC)c(OC)c2)C(C)C)cc1OC (stereo not given),fold change (FC),[10],8.5
Cc1c(C)c2c(c(C)c1O)CCC(C)(COc1ccc(CC3SC(=O)NC3=O)cc1)O2 (stereo not given) [TROGLITAZONE],"inhibition at 0.5 h, 10 µM",[11],84%
CC(C)NCC(O)COc1cccc2ccccc12 (stereo not given) [PROPRANOLOL],Papp A→B at 2 h,[12],30.9 ×10⁻⁶ cm/s
same,recovery at 2 h,[13],70%
COc1cc(C(=O)NC(=S)Nc2ccc(C)c(NC(=O)c3ccc(-c4ccc(F)cc4)cc3)c2)cc(OC)c1OC,Activity,[4],Dose-dependent effect
same,IC50,[4],7.5 µM
same,"inhibition at 0.5 h, 1 µM",[14],2%
same,recovery at 2 h,[15],42.9%
same,remaining at 2 h,[16],4.9%
same,inhibition,[5],Dose-dependent effect
same,IC50,[6],0.1 µM
same,"inhibition at 0.5 h, 10 µM",[17],1%
same,"inhibition at 0.5 h, 5 µM",[18],69%
same,"inhibition at 0.75 h, 10 µM",[19],6%
same,"inhibition at 0.5 h, 10 µM",[20],71%
same,"inhibition at 0.5 h, 1 µM",[21],63%
same,"inhibition at 0.5 h, 5 µM",[22],33%
same,"inhibition at 10 min, 5 µM",[23],7%
same,"inhibition at 10 min, 10 µM",[24],15%
same,"inhibition at 0.5 h, 1 µM",[25],25%
same,Activity,[7],Not Active
same,fold change (FC),[10],3
same,"inhibition at 0.75 h, 5 µM",[26],1%
same,"inhibition at 0.75 h, 1 µM",[27],18%
same,Activity,[8],Dose-dependent effect
same,IC50,[8],27 µM
same,IC50,[9],0.67 µM
same,"inhibition at 0.5 h, 5 µM",[28],5%
same,"inhibition at 10 min, 1 µM",[29],4%
same,"inhibition at 0.5 h, 10 µM",[11],27%
same,recovery at 2 h,[13],65.4%
same,Stability,[30],Stable
CC(C)NCC(O)COc1ccc(CC(N)=O)cc1 (stereo not given) [ATENOLOL],recovery at 2 h,[15],102%
same,recovery at 2 h,[13],94.7%

# Reference: ChEMBL document CHEMBL4270604, “Hedgehog pathway inhibitors of the acylthiourea and acylguanidine class show antitumor activity on colon cancer in vitro and in vivo” (Eur J Med Chem, 2018)
